Results taken from PMC9933715 (Antimicrobial Agents and Chemotherapy, 2023).

Assays:
[1] = test system: DENV-R2A (Rluc-expressing DENV, serotype 2 strain 16681); test: microbe, parasite or virus in culture; format: cell-based, Dengue virus; conditions: Dengue virus, Huh7.5, 48 h, read-out: DENV-R2A replication (fold DMSO) Mean, deconvolution screen, singletons, 50 µM, Huh7.5, 2 days postinfection
[2] = test system: ZIKV-R2A (strain FSS13025); test: microbe, parasite or virus in culture; format: cell-based; conditions: Zika virus, Huh7.5, 48 h, read-out: ZIKV-R2A replication (fold DMSO) Mean
Huh7.5 cells = test: Cell viability, CellTiter-Glo luminescent assay; conditions: deconvolution screen, singletons, 50 µM, uninfected Huh7.5

| SMILES | activity at 50 µM [1] | activity at 50 µM [2] | Cell viability (fold DMSO) Mean (Huh7.5 cells) |
| --- | --- | --- | --- |
| N#CCC(=O)Nc1ccccc1 [Compound 9B-046, O=C(CC#N)Nc1ccccc1] | 96% | 104% | 1.17 fold DMSO |
| NC(=O)NCc1cccc(Cl)c1 [Compound 9M-050, NC(=O)NCc1cccc(Cl)c1] | 100% | 110% | 1.27 fold DMSO |
| Cc1cc(C)n2ccnc2c1 [Compound 9X-0854, Cc1cc(C)n2ccnc2c1] | 94% | 98% | 1.21 fold DMSO |
| Cc1onc(-c2ccccc2)c1C#N [Compound 10B-058, Cc1onc(c2ccccc2)c1C#N] | 102% | 106% | 0.98 fold DMSO |
| CN1C(=O)Cc2ccccc2C1=O [Compound 10L-733, CN1C(=O)Cc2ccccc2C1=O] | 101% | 114% | 0.94 fold DMSO |
| OCc1cc2c(cc1Br)OCO2 [Compound 10P-113, OCc1cc2OCOc2cc1Br] | 86% | 103% | 0.88 fold DMSO |
| CC(=O)c1cc(Br)cs1 [Compound 10X-0139, CC(=O)c1cc(Br)cs1] | 98% | 108% | 1.20 fold DMSO |
| CC(C)(C)OC(=O)N1CCCCn2nc(CO)cc2C1 [Compound 10X-0603, CC(C)(C)OC(=O)N1CCCCn2nc(CO)cc2C1] | 106% | 104% | 1.07 fold DMSO |
| CNC(=O)c1cc(Br)c[nH]1 [Compound 10Y-0822, CNC(=O)c1cc(Br)c[nH]1] | 75% | 77% | 0.89 fold DMSO |
| CCN1C(=O)CCCc2ccccc21 [Compound 11N-585S, CCN1C(=O)CCCc2ccccc12] | 102% | 97% | 0.93 fold DMSO |
| CC1(C)CN2C(=O)c3ccccc3C2S1 (stereo not drawn) [Compound 12R-0242, CC1(C)CN2C(S1)c3ccccc3C2=O] | 62% | 74% | 0.81 fold DMSO |
| Cc1cc2c(cc1C)NC(C)CC(=O)N2 (stereo not drawn) [Compound 12W-0869, CC1CC(=O)Nc2cc(C)c(C)cc2N1] | 85% | 97% | 1.09 fold DMSO |
| Cc1cc(O)cc(C)c1CO [DK-0713, Cc1cc(O)cc(C)c1CO] | 96% | 93% | 1.04 fold DMSO |
| Cn1cc(Br)c2c(N)ncnc21 [EK-0205, Cn1cc(Br)c2c(N)ncnc12] | 51% | 63% | 0.87 fold DMSO |
| Cc1ccc(N2CCNC2=O)c(C)c1 [FA-0890, Cc1ccc(N2CCNC2=O)c(C)c1] | 99% | 112% | 1.08 fold DMSO |
| Cc1cccc(N2CCNCC2)n1 [FS-1568, Cc1cccc(n1)N2CCNCC2] | 91% | 102% | 1.22 fold DMSO |
| CCCC(=O)c1cccs1 [FS-1782, CCCC(=O)c1cccs1] | 104% | 104% | 1.02 fold DMSO |
| Nc1oncc1-c1ccc(Cl)cc1 [FS-2048, Nc1oncc1c2ccc(Cl)cc2] | 57% | 61% | 0.90 fold DMSO |
| O=C(c1ccccc1)C1(O)CCCCC1 [FS-3226, OC1(CCCCC1)C(=O)c2ccccc2] | 96% | 109% | 1.07 fold DMSO |
| Cc1ccc(C2CNCCN2)cc1 (stereo not drawn) [FS-3294, Cc1ccc(cc1)C2CNCCN2] | 74% | 96% | 1.08 fold DMSO |
| OCc1cc2cc(Br)ccc2[nH]1 [GA-0936, OCc1cc2cc(Br)ccc2[nH]1] | 13% | 63% | 0.83 fold DMSO |
| Clc1ccc2nncn2c1 [GC-0731, Clc1ccc2nncn2c1] | 94% | 102% | 1.03 fold DMSO |
| CC(=O)Nc1cc(C)ccc1F [MS-0037, CC(=O)Nc1cc(C)ccc1F] | 103% | 114% | 1.28 fold DMSO |
| CNC(=O)Nc1ccc(F)c(C)c1 [MS-0046, CNC(=O)Nc1ccc(F)c(C)c1] | 96% | 97% | 1.00 fold DMSO |
| O=C1CCCc2cc(O)ccc21 [MS-2425, Oc1ccc2C(=O)CCCc2c1] | 98% | 92% | 1.05 fold DMSO |
| N#CCOc1cccc2ccccc12 [MS-7107, N#CCOc1cccc2ccccc12] | 65% | 84% | 1.01 fold DMSO |
